# Patent US20210024542A1 (Torcept Therapeutics, Inc., priority 2018, published 2021)
# Read-outs that look alike come from different tables or passages of the source.
# Assays:
# NCI-H510A = experiment: OncoPanel cell proliferation assay, NCI-H510A; assay type: cell-based, human; conditions: scale 0-10
# Protocol: (§1) Cells were grown in RPMI 1640, 10% FBS, 2 mM L-alanyl-L-glutamine, 1 mM Na pyruvate, or a special medium. Cells were seeded into 384-well plates and incubated in a humidified atmosphere of 5% CO2 at 37° C. Compounds were added the day following cell seeding. At the same time, a time zero untreated cell plate was generated. After a 3-day incubation period, cells were fixed and stained to allow fluorescence imaging of nuclei. Compounds (1 mM stock solutions) were serially diluted in half-log steps from the highest test concentration ([…]), and assayed over 10 concentrations with a maximum assay concentration of 0.1% DMSO. Automated fluorescence microscopy was carried out using a Molecular Devices ImageXpress Micro XL high-content imager, and images were collected with a 4× objective. 16-bit TIFF images were acquired and analyzed with MetaXpress 5.1.0.41 software.
# (§2) Cell proliferation was measured by the fluorescence intensity of an incorporated nuclear dye. The output is referred to as the relative cell count, where the measured nuclear intensity is transformed to percent of control (POC) using the following formula: […]
# (§3) Cellular response parameters were calculated using nonlinear regression to a sigmoidal single-site dose response model:
# (§4) Where y is a response measured at concentration x, A and B are the lower and upper limits of the response, C is the concentration at the response midpoint (EC50), and D is the Hill Slope (Ref. 1).
# (§5) EC50 is the test compound concentration at the curve inflection point or half the effective response (parameter C of the fitted curve solution). GI50 is the concentration needed to reduce the observed growth by half (midway between the curve maximum and the time zero value). “Cell Count Activity Area” is an estimate of the integrated area above the curve (Barretina, et al. The Cancer Cell Line Encyclopedia enables predictive modelling of anticancer drug sensitivity. Nature 483: 603-607). […] In rare instances, values <0 or >10 may be observed. […] Curve-fitting, calculations, and report generation was performed using a custom data reduction engine and MathIQ based software (AIM).
# RL95-2 = experiment: OncoPanel cell proliferation assay, RL95-2; assay type: cell-based, human; conditions: for Relative cell count (%) Mean: RL95-2
# Protocol: as §1, §2, §3, §4, §5
# U-87 MG = experiment: OncoPanel cell proliferation assay, U-87 MG; assay type: cell-based, human
# Protocol: as §1, §2, §3, §4, §5
# AsPC-1 = experiment: OncoPanel cell proliferation assay, AsPC-1; conditions: for Relative cell count (%) Mean: AsPC-1
# Protocol: (§6) Cells were seeded into 384-well plates and incubated in a humidified atmosphere of 5% CO2 at 37° C. Compounds were added the day following cell seeding. At the same time, a time zero untreated cell plate was generated. After a 3-day incubation period, cells were fixed and stained to allow fluorescence imaging of nuclei. Compounds (1 mM stock solutions) were serially diluted in half-log steps from the highest test concentration (1 micromol), and assayed over 10 concentrations with a maximum assay concentration of 0.1% DMSO. Automated fluorescence microscopy was carried out using a Molecular Devices ImageXpress Micro XL high-content imager, and images were collected with a 4× objective. 16-bit TIFF images were acquired and analyzed with MetaXpress 5.1.0.41 software.
# (§7) GI50 is the concentration needed to reduce the observed growth by half (midway between the curve maximum and the time zero value). […] In rare instances, values <0 or >10 may be observed. […] Curve-fitting, calculations, and report generation was performed using a custom data reduction engine and MathIQ based software (AIM).
# SHP-77 = experiment: OncoPanel cell proliferation assay, SHP-77; conditions: for Relative cell count (%) Mean: SHP-77
# Protocol: as §6, §7
# CHP-212 = experiment: OncoPanel cell proliferation assay, CHP-212; conditions: for Relative cell count (%) Mean: CHP-212
# Protocol: as §6, §7
# SK-NEP-1 = experiment: OncoPanel cell proliferation assay, SK-NEP-1; conditions: for Relative cell count (%) Mean: SK-NEP-1
# Protocol: as §6, §7
smiles,measurement,setting,value
"CO[C@H]1C[C@@H]2CC[C@@H](C)[C@@](O)(O2)C(=O)C(=O)N2CCCC[C@H]2C(=O)O[C@H]([C@H](C)C[C@@H]2C[C@@H]3C[C@H]2C[C@H]3O)CC(=O)[C@H](C)/C=C(\C)[C@@H](O)[C@@H](OC)C(=O)[C@H](C)C[C@H](C)/C=C/C=C/C=C/1C [Formula I, 37R-hydroxynorbornylrapamycin]",Cell Count Activity Area,NCI-H510A,3.05
same,EC50,"RL95-2; Homo sapiens, 72 h, RL95-2, 3-day incubation, read-out: Cell Count EC50",0.15 nM
same,GI50,"RL95-2; Homo sapiens, 72 h, RL95-2, 3-day incubation, read-out: Cell Count GI50",0.22 nM
same,IC50,"RL95-2; Homo sapiens, 72 h, RL95-2, 3-day incubation, read-out: Cell Count IC50",10.9 nM
same,Cell Count Activity Area,"RL95-2; RL95-2, scale 0-10",4.12
same,Relative cell count (%) Mean,RL95-2; 1.00E+00 microM,47.2%
same,Relative cell count (%) Mean,RL95-2; 1.00E−01 microM,50.6%
same,Relative cell count (%) Mean,RL95-2; 1.00E−02 microM,52.2%
same,Relative cell count (%) Mean,RL95-2; 1.00E−03 microM,59.5%
same,Relative cell count (%) Mean,RL95-2; 1.01E−04 microM,78.3%
same,Relative cell count (%) Mean,RL95-2; 3.16E−01 microM,45.6%
same,Relative cell count (%) Mean,RL95-2; 3.17E−02 microM,48.5%
same,Relative cell count (%) Mean,RL95-2; 3.17E−03 microM,52.9%
same,Relative cell count (%) Mean,RL95-2; 3.18E−04 microM,64.0%
same,Relative cell count (%) Mean,RL95-2; 3.18E−05 microM,89.3%
same,Relative cell count (%) Mean,U-87 MG; 1.00E+00 microM,51.2%
same,Relative cell count (%) Mean,U-87 MG; 1.00E−01 microM,54.5%
same,Relative cell count (%) Mean,U-87 MG; 1.00E−02 microM,54.7%
same,Relative cell count (%) Mean,U-87 MG; 1.00E−03 microM,64.8%
same,Relative cell count (%) Mean,U-87 MG; 1.01E−04 microM,87.3%
same,Relative cell count (%) Mean,U-87 MG; 3.16E−01 microM,51.6%
same,Relative cell count (%) Mean,U-87 MG; 3.17E−02 microM,50.4%
same,Relative cell count (%) Mean,U-87 MG; 3.17E−03 microM,58.9%
same,Relative cell count (%) Mean,U-87 MG; 3.18E−04 microM,71.8%
same,Relative cell count (%) Mean,U-87 MG; 3.18E−05 microM,93.7%
same,EC50,"U-87 MG; Homo sapiens, 72 h, 3-day incubation, read-out: Cell Count EC50",0.206 nM
same,GI50,"U-87 MG; Homo sapiens, 72 h, 3-day incubation, read-out: Cell Count GI50",0.509 nM
same,IC50,"U-87 MG; Homo sapiens, 72 h, 3-day incubation, read-out: Cell Count IC50",48.8 nM
same,Cell Count Activity Area,U-87 MG; scale 0-10,3.92
same,Cell Count Activity Area,"AsPC-1; AsPC-1, scale 0-10",2.50
same,Relative cell count (%) Mean,AsPC-1; 1.00E+00 microM,64.8%
same,Relative cell count (%) Mean,AsPC-1; 1.00E−01 microM,74.0%
same,Relative cell count (%) Mean,AsPC-1; 1.00E−02 microM,68.9%
same,Relative cell count (%) Mean,AsPC-1; 1.00E−03 microM,81.7%
same,Relative cell count (%) Mean,AsPC-1; 1.01E−04 microM,89.6%
same,Relative cell count (%) Mean,AsPC-1; 3.16E−01 microM,67.9%
same,Relative cell count (%) Mean,AsPC-1; 3.17E−02 microM,74.7%
same,Relative cell count (%) Mean,AsPC-1; 3.17E−03 microM,77.8%
same,Relative cell count (%) Mean,AsPC-1; 3.18E−04 microM,94.5%
same,Relative cell count (%) Mean,AsPC-1; 3.18E−05 microM,99.5%
same,EC50,"AsPC-1; Homo sapiens, ASPC1",0.52 nM
same,EC50,"AsPC-1; Homo sapiens, ASPC1, 72 h, read-out: Cell Count EC50",0.519 nM
same,GI50,"AsPC-1; Homo sapiens, ASPC1, 72 h, read-out: Cell Count GI50",8.07 nM
same,IC50,"AsPC-1; Homo sapiens, ASPC1, 72 h, read-out: Cell Count IC50",> 1000 nM
same,EC50,"SHP-77; Homo sapiens, SHP77, 72 h, read-out: Cell Count EC50",309 nM
same,GI50,"SHP-77; Homo sapiens, SHP77, 72 h, read-out: Cell Count GI50",> 1000 nM
same,IC50,"SHP-77; Homo sapiens, SHP77, 72 h, read-out: Cell Count IC50",> 1000 nM
same,Cell Count Activity Area,"SHP-77; SHP-77, scale 0-10",1.18
same,Relative cell count (%) Mean,SHP-77; 1.00E+00 microM,71.6%
same,Relative cell count (%) Mean,SHP-77; 1.00E−01 microM,83.4%
same,Relative cell count (%) Mean,SHP-77; 1.00E−02 microM,94.0%
same,Relative cell count (%) Mean,SHP-77; 1.00E−03 microM,96.5%
same,Relative cell count (%) Mean,SHP-77; 1.01E−04 microM,98.0%
same,Relative cell count (%) Mean,SHP-77; 3.16E−01 microM,75.9%
same,Relative cell count (%) Mean,SHP-77; 3.17E−02 microM,84.9%
same,Relative cell count (%) Mean,SHP-77; 3.17E−03 microM,89.5%
same,Relative cell count (%) Mean,SHP-77; 3.18E−04 microM,101.7%
same,Relative cell count (%) Mean,SHP-77; 3.18E−05 microM,99.1%
same,Cell Count Activity Area,"CHP-212; CHP-212, scale 0-10",3.70
same,Relative cell count (%) Mean,CHP-212; 1.00E−01 microM,49.6%
same,Relative cell count (%) Mean,CHP-212; 1.00E−02 microM,52.8%
same,Relative cell count (%) Mean,CHP-212; 1.00E−03 microM,56.6%
same,Relative cell count (%) Mean,CHP-212; 1.01E−04 microM,70.6%
same,Relative cell count (%) Mean,CHP-212; 3.16E−01 microM,45.9%
same,Relative cell count (%) Mean,CHP-212; 3.17E−02 microM,49.0%
same,Relative cell count (%) Mean,CHP-212; 3.17E−03 microM,55.3%
same,Relative cell count (%) Mean,CHP-212; 3.18E−04 microM,63.3%
same,Relative cell count (%) Mean,CHP-212; 3.18E−05 microM,86.7%
same,EC50,"CHP-212; Homo sapiens, CHP-212, 72 h, read-out: Cell Count EC50",0.0918 nM
same,GI50,"CHP-212; Homo sapiens, CHP-212, 72 h, read-out: Cell Count GI50",0.125 nM
same,IC50,"CHP-212; Homo sapiens, CHP-212, 72 h, read-out: Cell Count IC50",19.3 nM
same,EC50,"SK-NEP-1; Homo sapiens, SK-NEP-1, 72 h, read-out: Cell Count EC50",0.706 nM
same,GI50,"SK-NEP-1; Homo sapiens, SK-NEP-1, 72 h, read-out: Cell Count GI50",0.747 nM
same,IC50,"SK-NEP-1; Homo sapiens, SK-NEP-1, 72 h, read-out: Cell Count IC50",2.42 nM
same,Cell Count Activity Area,"SK-NEP-1; SK-NEP-1, scale 0-10",4.35
same,Relative cell count (%) Mean,SK-NEP-1; 1.00E+00 microM,35.6%
same,Relative cell count (%) Mean,SK-NEP-1; 1.00E−01 microM,38.6%
same,Relative cell count (%) Mean,SK-NEP-1; 1.00E−02 microM,45.3%
same,Relative cell count (%) Mean,SK-NEP-1; 1.00E−03 microM,63.5%
same,Relative cell count (%) Mean,SK-NEP-1; 1.01E−04 microM,100.0%
same,Relative cell count (%) Mean,SK-NEP-1; 3.16E−01 microM,35.6%
same,Relative cell count (%) Mean,SK-NEP-1; 3.17E−02 microM,40.0%
same,Relative cell count (%) Mean,SK-NEP-1; 3.17E−03 microM,48.8%
same,Relative cell count (%) Mean,SK-NEP-1; 3.18E−04 microM,83.9%
same,Relative cell count (%) Mean,SK-NEP-1; 3.18E−05 microM,99.4%
